From US11389447B2 (Janssen Sciences Ireland Unlimited Company, priority 2006, dated 2022)
Like-named read-outs stand apart in the source and are kept apart here.

Tests used:
[1] = Kinetic study: plasma kinetics of TMC278 after single IM or SC injection of a nanosuspension; format: in vivo, male beagle dogs; details: male, beagle, dog, plasma, sc, 5 mg/kg; for concentration at 0 h / concentration at 1 h / concentration at 3 h / concentration at 8 h / concentration at 24 h / concentration at 48 h / concentration at 72 h / concentration at 144 h / concentration at 192 h / concentration at 240 h / concentration at 312 h / concentration at 384 h / concentration at 480 h / concentration at 648 h / concentration at 696 h / concentration at 864 h / concentration at 1032 h / concentration at 1200 h / concentration at 1368 h / concentration at 1536 h / concentration at 1704 h / concentration at 1872 h / concentration at 2040 h / concentration at 2208 h: plasma concentration of TMC278, single SC 5 mg/kg TMC278 nanosuspension; for AUC(0-t) / Cmax / Tmax: single SC 5 mg/kg TMC278 nanosuspension; for Cmax: read-out: Cmax; for Tmax: read-out: Tmax;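 for all read-outs here: healthy male beagle dogs injected in both biceps femoris muscles (IM) or both thoracal sides (SC), total volume 0.2 mL/kg, drug measured in plasma from blood samples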
Description: Six healthy male beagle dogs with body weights ranging from 8 to 16 kg at the start of the study, were used. Each dog was identified by an ear tattoo number. Two dogs were dosed intramuscularly (IM) in the left and right m. biceps femoris (treatment group A). […] Two dogs were dosed subcutaneously (SC) in the left and right thoracal region. The injection volume was 2×0.1 ml/kg in all treatment groups. A 20 G needle was used.
Blood samples of 3 ml were taken from the left jugular vein from all dogs on day 0 at 0 h (predose), 20 min, 1 h, 3 h, 8 h and 24 h post-dose and further on days 2, 3, 6, 8, 10, 13, 16, 20, 23, 27, 29, 36, 43, 50, 57, 64, 71, 78, 85 and 92 at approximately 8 AM. Blood samples were placed on EDTA, EDTA Vacuette Greiner, Cat. No. 454086, Greiner Labortechnik N.V.). Within 2 h of blood sampling, samples were centrifuged at room temperature at about 1900×g for 10 minutes to allow plasma separation. Plasma was immediately transferred into a second tube and stored in the freezer within 2 hours after the start of centrifugation.

wild type HIV = details: cited from earlier work
mutated variants of HIV = details: many of its mutated variants; cited from earlier work

In the case of `Cc1cc(C=CC#N)cc(C)c1Nc1ccnc(Nc2ccc(C#N)cc2)n1` [TMC278, 4-[[4-[[4-(2-cyanoethenyl)-2,6-dimethylphenyl]amino]-2-pyrimidinyl]amino]benzonitrile], the concentration at 0 h ([1]; dog 19129, 0 h (d0, predose)) is reported as < 1 ng/mL, the concentration at 1 h ([1]; dog 19129, 1 h) is reported as 1.62 ng/mL and the concentration at 3 h ([1]; dog 19129, 3 h) is reported as 7.96 ng/mL. For the same compound, the concentration at 8 h ([1]; dog 19129, 8 h) was 27.6 ng/mL, the concentration at 24 h ([1]; dog 19129, 24 h (d1)) was 15.7 ng/mL and the concentration at 48 h ([1]; dog 19129, 48 h (d2)) was 34.8 ng/mL. The concentration at 72 h ([1]; dog 19129, 72 h (d3)) was 26.1 ng/mL, the concentration at 144 h ([1]; dog 19129, 144 h (d6)) was 18.9 ng/mL and the concentration at 192 h ([1]; dog 19129, 192 h (d8)) was 17.7 ng/mL. For the same compound, the concentration at 240 h ([1]; dog 19129, 240 h (d10)) was 24.3 ng/mL, the concentration at 312 h ([1]; dog 19129, 312 h (d13)) was 21.7 ng/mL and the concentration at 384 h ([1]; dog 19129, 384 h (d16)) was 21.7 ng/mL. For the same compound, the concentration at 480 h ([1]; dog 19129, 480 h (d20)) was 29.8 ng/mL, the concentration at 648 h ([1]; dog 19129, 648 h (d27)) was 19 ng/mL and the concentration at 696 h ([1]; dog 19129, 696 h (d29)) was 21 ng/mL. The concentration at 864 h ([1]; dog 19129, 864 h (d36)) was 12.7 ng/mL, the concentration at 1032 h ([1]; dog 19129, 1032 h (d43)) was 5.22 ng/mL and the concentration at 1200 h ([1]; dog 19129, 1200 h (d50)) was 6.37 ng/mL. For the same compound, the concentration at 1368 h ([1]; dog 19129, 1368 h (d57)) was 4.78 ng/mL, the concentration at 1536 h ([1]; dog 19129, 1536 h (d64)) was 6.45 ng/mL and the concentration at 1704 h ([1]; dog 19129, 1704 h (d71)) was 3.96 ng/mL. The concentration at 1872 h ([1]; dog 19129, 1872 h (d78)) was 3.66 ng/mL, the concentration at 2040 h ([1]; dog 19129, 2040 h (d85)) was 8.6 ng/mL and the concentration at 2208 h ([1]; dog 19129, 2208 h (d92)) was 3.05 ng/mL. The concentration at 0 h ([1]; dog 19349, 0 h (d0, predose)) was < 1 ng/mL, the concentration at 1 h ([1]; dog 19349, 1 h) was 1.37 ng/mL and the concentration at 3 h ([1]; dog 19349, 3 h) was 8.42 ng/mL. The concentration at 8 h ([1]; dog 19349, 8 h) was 13.8 ng/mL, the concentration at 24 h ([1]; dog 19349, 24 h (d1)) was 28.5 ng/mL and the concentration at 48 h ([1]; dog 19349, 48 h (d2)) was 29.1 ng/mL. It also gave a concentration at 72 h ([1]; dog 19349, 72 h (d3)) of 30.6 ng/mL, a concentration at 144 h ([1]; dog 19349, 144 h (d6)) of 32.7 ng/mL and a concentration at 192 h ([1]; dog 19349, 192 h (d8)) of 23 ng/mL. For the same compound, the concentration at 240 h ([1]; dog 19349, 240 h (d10)) was 42 ng/mL, the concentration at 312 h ([1]; dog 19349, 312 h (d13)) was 38.8 ng/mL and the concentration at 384 h ([1]; dog 19349, 384 h (d16)) was 16.6 ng/mL. It also gave a concentration at 480 h ([1]; dog 19349, 480 h (d20)) of 21.2 ng/mL, a concentration at 648 h ([1]; dog 19349, 648 h (d27)) of 11 ng/mL and a concentration at 696 h ([1]; dog 19349, 696 h (d29)) of 10.5 ng/mL. It also gave a concentration at 864 h ([1]; dog 19349, 864 h (d36)) of 5.49 ng/mL, a concentration at 1032 h ([1]; dog 19349, 1032 h (d43)) of 6.03 ng/mL and a concentration at 1200 h ([1]; dog 19349, 1200 h (d50)) of 3.4 ng/mL. For the same compound, the concentration at 1368 h ([1]; dog 19349, 1368 h (d57)) was 2.52 ng/mL, the concentration at 1536 h ([1]; dog 19349, 1536 h (d64)) was 2.05 ng/mL and the concentration at 1704 h ([1]; dog 19349, 1704 h (d71)) was 3.57 ng/mL. For the same compound, the concentration at 1872 h ([1]; dog 19349, 1872 h (d78)) was 1.91 ng/mL, the concentration at 2040 h ([1]; dog 19349, 2040 h (d85)) was 2.82 ng/mL and the concentration at 2208 h ([1]; dog 19349, 2208 h (d92)) was 2.49 ng/mL. The concentration at 0 h ([1]; mean of 2 dogs, 0 h (d0, predose)) was < 1 ng/mL, the concentration at 1 h ([1]; mean of 2 dogs, 1 h) was 1.5 ng/mL and the concentration at 3 h ([1]; mean of 2 dogs, 3 h) was 8.19 ng/mL. It also gave a concentration at 8 h ([1]; mean of 2 dogs, 8 h) of 20.7 ng/mL, a concentration at 24 h ([1]; mean of 2 dogs, 24 h (d1)) of 22.1 ng/mL and a concentration at 48 h ([1]; mean of 2 dogs, 48 h (d2)) of 32 ng/mL. The concentration at 72 h ([1]; mean of 2 dogs, 72 h (d3)) was 28.4 ng/mL, the concentration at 144 h ([1]; mean of 2 dogs, 144 h (d6)) was 25.8 ng/mL and the concentration at 192 h ([1]; mean of 2 dogs, 192 h (d8)) was 20.4 ng/mL. The concentration at 240 h ([1]; mean of 2 dogs, 240 h (d10)) was 33.2 ng/mL, the concentration at 312 h ([1]; mean of 2 dogs, 312 h (d13)) was 30.3 ng/mL and the concentration at 384 h ([1]; mean of 2 dogs, 384 h (d16)) was 19.2 ng/mL. The concentration at 480 h ([1]; mean of 2 dogs, 480 h (d20)) was 25.5 ng/mL, the concentration at 648 h ([1]; mean of 2 dogs, 648 h (d27)) was 15 ng/mL and the concentration at 696 h ([1]; mean of 2 dogs, 696 h (d29)) was 15.8 ng/mL. It also gave a concentration at 864 h ([1]; mean of 2 dogs, 864 h (d36)) of 9.1 ng/mL, a concentration at 1032 h ([1]; mean of 2 dogs, 1032 h (d43)) of 5.63 ng/mL and a concentration at 1200 h ([1]; mean of 2 dogs, 1200 h (d50)) of 4.89 ng/mL. The concentration at 1368 h ([1]; mean of 2 dogs, 1368 h (d57)) was 3.65 ng/mL, the concentration at 1536 h ([1]; mean of 2 dogs, 1536 h (d64)) was 4.25 ng/mL and the concentration at 1704 h ([1]; mean of 2 dogs, 1704 h (d71)) was 3.77 ng/mL. The concentration at 1872 h ([1]; mean of 2 dogs, 1872 h (d78)) was 2.79 ng/mL, the concentration at 2040 h ([1]; mean of 2 dogs, 2040 h (d85)) was 5.71 ng/mL and the concentration at 2208 h ([1]; mean of 2 dogs, 2208 h (d92)) was 2.77 ng/mL. For the same compound, the AUC(0-t) ([1]; dog 19129, read-out: AUC0-312 h) was 6910 ng·h/mL, the AUC(0-t) ([1]; dog 19129, read-out: AUC0-696 h) was 15900 ng·h/mL and the AUC(0-t) ([1]; dog 19129, read-out: AUC0-2208 h) was 26400 ng·h/mL. It also gave a Cmax ([1]; dog 19129) of 34.8 ng/mL, a Tmax ([1]; dog 19129) of 48 h and an AUC(0-t) ([1]; dog 19349, read-out: AUC0-312 h) of 9880 ng·h/mL. For the same compound, the AUC(0-t) ([1]; dog 19349, read-out: AUC0-696 h) was 16700 ng·h/mL, the AUC(0-t) ([1]; dog 19349, read-out: AUC0-2208 h) was 22400 ng·h/mL and the Tmax ([1]; dog 19349) was 240 h. The AUC(0-t) ([1]; mean of 2 dogs, read-out: AUC0-312 h) was 8400 ng·h/mL, the AUC(0-t) ([1]; mean of 2 dogs, read-out: AUC0-696 h) was 16300 ng·h/mL and the AUC(0-t) ([1]; mean of 2 dogs, read-out: AUC0-2208 h) was 24400 ng·h/mL. For the same compound, the Cmax ([1]; mean of 2 dogs) was 38.4 ng/mL, the Tmax ([1]; mean of 2 dogs) was 144 h and the “activity against wild type HIV (in words)” value (wild type HIV) was “pronounced activity”. For the same compound, the “activity against mutated variants of HIV (in words)” value (mutated variants of HIV) was “pronounced activity”.
